Assay [1] concerns PDAC-2.3, PDAC-3.3, BTC-3, BTC-5. Nature of the assay: uptake of IR783 in cell lines: pancreatic. Format: cell-based, human. The text has this:
(§1) The uptake of IR783 was studied and confirmed in a variety of human cell lines as shown below: […]

For assay [2], the system named is HepG2. Briefly: uptake of IR783 in cell lines: liver. Format: cell-based, human.
From the text: as §1

The subject of assay [3] is MCF-7. Nature of the assay: uptake of IR783 in cell lines: breast. Format: cell-based, human.
From the text: as §1

Assay [4] deals with HeLa. Nature of the assay: uptake of IR783 in cell lines: cervical. It counts as cell-based, human.
From the text: as §1

For assay [5], the system named is K562. Briefly: uptake of IR783 in cell lines: leukemia. It counts as cell-based, human.
From the text: as §1

For assay [6], the system named is NPF. Nature of the assay: uptake of IR783 in cell lines: prostate fibroblasts. It counts as cell-based, human.
From the text: as §1

The test system of assay [7] is HaCaT. Nature of the assay: uptake of IR783 in cell lines: skin. Format: cell-based, human.
From the text: as §1

The test system of assay [8] is ARCaPM prostate cancer cells and P69 normal prostate epithelial cells. Briefly: confocal fluorescence imaging of IR783 uptake, cancer versus normal cells (FIG. 14). Format: cell-based, human. Here is the method: After being washed in PBS to remove free dyes, the cells were subject to confocal fluorescence imaging. DAPI, added together with IR783, was used as a positive control for the staining of the cell nucleus. P69, representing normal human prostate epithelial cells, was stained in parallel. Images were acquired by Zeiss LSM 510 META confocal microscopy. […] 100 μM BSP was used to pre-incubate with ARCaPM, before 50 μM IR783 was added.

Assay [9] deals with human renal tissues freshly obtained from surgery. Nature of the assay: staining of fresh human renal tumor specimens with IR783 (FIG. 20). From the text:
The compounds of the invention can also be used to detect cancer in fresh (or frozen or preserved) cells. In one embodiment of this aspect of the invention, cells are obtained from small needle biopsy, needle aspiration, or other methods as known in the art. The cells after dye uptake is completed can be minced, sliced, smeared onto a slide, or any other preparation. An amount of one or more compound of the invention can be dropped onto the cells or otherwise contacted with the cells (shaken in a tube, for example). […] The cells can be imaged under a fluorescence microscope equipped with a NIR filter, for example.

Entries after “also recorded” stand apart in the source; their conditions may differ.

Take `CC1(C)C(=CC=C2CCCC(C=CC3=[N+](CCCCS(=O)(=O)[O-])c4ccccc4C3(C)C)=C2Cl)N(CCCCS(=O)(=O)[O-])c2ccccc21.[Na+]` [IR783]: the Uptake entry in [1] is given as “Strong”; in [2] it was “Strong”; in [3] it was “Strong”; in assay [4], “Strong”; in assay [5], “Strong”; in assay [6], “Very low”. Also, the Uptake entry in assay [7] is listed as “Very low”. Also, the “uptake by cancer cells at 0° C.” value in assay [8] (0° C., data not shown) is reported as “no uptake”. The “uptake, ARCaPM compared with P69” value in [8] (50 μM, 37° C., 30 min) was “only in the cancer cells”. The “effect of BSP on uptake by ARCaPM cells” value in assay [8] (100 μM BSP pre-incubation, 50 μM IR783) was “inhibited by BSP; also recorded: completely abolished”. Further, the “time dependence of uptake” value in assay [8] (ARCaPM, FIG. 14) is recorded as “time-dependent fashion”. For the same compound, the “dose dependence of uptake” value in assay [8] (ARCaPM, data not shown) was “dose-dependent fashion”. In addition, the “distribution in renal tissue, confocal microscopy” value in [9] (tissues incubated with IR783, washed) is “concentrated in renal cancer but not normal kidney cells”. Further, the “fluorescence imaging of tumor regions” value in assay [9] (tumor, transitional and normal sections) is “intense uptake and retention”.

(Values after patent US11738095B2, “Cyanine-containing compounds for cancer imaging and treatment” (Emory University, priority 2007, dated 2023).)
